Source: US9433571B2, “Irritation mitigating polymers and uses therefor” (Lubrizol Advanced Materials, Inc., priority 2012, dated 2016)
Like-named read-outs stand apart in the source and are kept apart here.

What was measured:
eye = settings: cited from earlier work
[1] = system: Epiderm™ Human Tissue Model (EPI-200); test: MTT tissue viability assay (MTT ET-50 protocol) on EpiDerm skin cultures; settings: for Viability (%): relative to H2O negative control
Protocol: Mitigation of skin irritancy induced by sodium dodecyl sulfate (SDS) surfactant dosed with the polymer of Example 11 is assessed in the Epiderm™ Human Tissue Model (EPI-200) bioassay conducted by MatTek Corporation, Ashland, Mass. The MatTek bioassay utilizes human derived epidermal keratinocytes (NHEK) which have been cultured to form a multilayered, highly differentiated model of the human epidermis.
The MTT tissue viability assay measures the NAD(P)H dependent microsomal enzyme reduction of MTT (and to a lesser extent, the succinate dehydrogenase reduction of MTT) after exposure to a treated skin culture test sample for various exposure times. The duration of exposure resulting in a 50% decrease in MTT conversion in test formulation treated EpiDerm™ cultures, relative to control cultures, is determined (ET-50).
Skin tissue culture inserts (Cat. No. EPI-200) are pre-incubated in the wells of 6-well plates containing 0.9 ml of MatTek assay medium (Cat. No. EPI-100-ASY) for 1 hr. at 37° C. in a humidified atmosphere of 5% CO2 in air. The 6-well plates containing the tissue culture inserts are removed from the incubator and the assay media is aspirated from the wells and replaced by an additional aliquot of 0.9 ml of pre-warmed (37° C.) assay media. For each exposure time wells are then dosed (2 repetitions) with 100 μl of the test formulations set forth in Table 10 (3 tissue culture wells are dosed with 100 μl ultra-pure water as a negative control for each of the test candidates). In addition, 100 μl of a positive control formulation (1% Triton X-100 in ultrapure water) is dosed into tissue culture wells (3 repetitions for each exposure time), as well as 3 repetitions of ultrapure water as a negative control. The exposure times of the test formulations, negative control and positive control are set forth below.
MTT assay plates are prepped by preparing a 24-well plate by adding 300 μl of MTT reagent solution to an appropriate number of wells to accommodate the test. The MTT reagent is utilized at a concentration of 1 mg/ml of MTT diluted in Dulbecco's Modified Eagle Medium (DMEM). The MTT/DMEM solution is centrifuged and decanted to remove any precipitate before use.
After exposure times of 60 (1 hr.), 120 (2 hrs.) and 210 (3.5 hrs.) minutes to the test solutions, the tissue cultures are removed from the incubator and thoroughly rinsed (2 times) with Dulbecco's phosphate buffered saline (DPBS) to remove the test material. The negative control is exposed for 4 hours and the positive control is exposed for time periods of 4, 6, 8, and 10 hours. Any remaining rinse media is decanted from the top of the tissue cultures. Each tissue culture insert is transferred to an appropriately labeled well of the 24-well plate containing the MTT reagent solution and placed back in the incubator. After 30 minutes reaction with the MTT reagent, the tissue cultures are removed from the incubator. Each tissue culture insert is removed from its well and the bottom is gently blotted with a lab tissue. The inserts are immersed into a labeled 24-well extraction plate containing 2 ml of isopropanol extractant solution. The 24-well extraction plate is covered with aluminum foil (to protect the samples from light) and placed into a sealable plastic bag to minimize evaporation of the extractant solution. The sealed 24-well extraction plate is set on an orbital shaker and gently shaken for 2 hours at ambient room temperature (approximately 20° C.). […]

sodium laureth-12 sulfate
eye irritation (eye): almost completely non-irritating

Triton X-100
ET-50 (exposure time which reduces tissue viability to 50%) [1]: 5.93 h

CCCCCCCCCCCCOS(=O)(=O)[O-].[Na+] [Neat Surfactant, sodium dodecyl sulfate]
Viability (%) ([1]; exposure time 1 hr): 92.3% | Viability (%) ([1]; exposure time 2 hr): 32.3% | Viability (%) ([1]; exposure time 3.5 hr): 16.6% | ET-50 (exposure time which reduces tissue viability to 50%) ([1]; interpolated between exposure times that bracket 50% viability, 100 μl formulation per tissue): 1.63 h

CCCCCCCCCCCCOS(=O)(=O)[O-].[Na+] [sodium lauryl sulfate]
eye irritation (eye; literature statement (Schoenberg, 1979)): significant eye irritation
